Reference: US10981926B2 (Janssen Pharmaceutica NV, priority 2016, dated 2021)

Key:
Assay type in all cases: cell-based
[1] = biological target: T1, F876L mutant Androgen Receptor (AR-F876L) (Homo sapiens (Human), UniProt P10275, F877L); experiment: LNCaP-AR-F876L AG reporter assay (agonist mode); settings: for EC50: agonist mode, pEC50 = −Log10(EC50 in Molar), read-out: LNCaP-AR-F876L AG pEC50 (converted); for Emax: read-out: LNCaP-AR-F876L AG MAX % Stim
[2] = biological target: T1, F876L mutant Androgen Receptor (AR-F876L); experiment: LNCaP-AR-F876L ANT reporter assay (antagonist mode); settings: for IC50: read-out: LNCaP-AR-F876L ANT pIC50 (converted); for Emax: maximum % inhibition of R1881 control response over the tested concentration range, read-out: LNCaP-AR-F876L ANT MAX % Inh
[3] = biological target: T2, wild-type Androgen Receptor (AR-wt) (Homo sapiens (Human), UniProt P10275); experiment: LNCaP-AR-wt ANT reporter assay (antagonist mode); settings: for IC50: read-out: LNCaP-AR-wt ANT pIC50 (converted); for Emax: maximum % inhibition of R1881 control response over the tested concentration range, read-out: LNCaP-AR-wt ANT MAX % Inh
T2 sequence (P10275 whole entry): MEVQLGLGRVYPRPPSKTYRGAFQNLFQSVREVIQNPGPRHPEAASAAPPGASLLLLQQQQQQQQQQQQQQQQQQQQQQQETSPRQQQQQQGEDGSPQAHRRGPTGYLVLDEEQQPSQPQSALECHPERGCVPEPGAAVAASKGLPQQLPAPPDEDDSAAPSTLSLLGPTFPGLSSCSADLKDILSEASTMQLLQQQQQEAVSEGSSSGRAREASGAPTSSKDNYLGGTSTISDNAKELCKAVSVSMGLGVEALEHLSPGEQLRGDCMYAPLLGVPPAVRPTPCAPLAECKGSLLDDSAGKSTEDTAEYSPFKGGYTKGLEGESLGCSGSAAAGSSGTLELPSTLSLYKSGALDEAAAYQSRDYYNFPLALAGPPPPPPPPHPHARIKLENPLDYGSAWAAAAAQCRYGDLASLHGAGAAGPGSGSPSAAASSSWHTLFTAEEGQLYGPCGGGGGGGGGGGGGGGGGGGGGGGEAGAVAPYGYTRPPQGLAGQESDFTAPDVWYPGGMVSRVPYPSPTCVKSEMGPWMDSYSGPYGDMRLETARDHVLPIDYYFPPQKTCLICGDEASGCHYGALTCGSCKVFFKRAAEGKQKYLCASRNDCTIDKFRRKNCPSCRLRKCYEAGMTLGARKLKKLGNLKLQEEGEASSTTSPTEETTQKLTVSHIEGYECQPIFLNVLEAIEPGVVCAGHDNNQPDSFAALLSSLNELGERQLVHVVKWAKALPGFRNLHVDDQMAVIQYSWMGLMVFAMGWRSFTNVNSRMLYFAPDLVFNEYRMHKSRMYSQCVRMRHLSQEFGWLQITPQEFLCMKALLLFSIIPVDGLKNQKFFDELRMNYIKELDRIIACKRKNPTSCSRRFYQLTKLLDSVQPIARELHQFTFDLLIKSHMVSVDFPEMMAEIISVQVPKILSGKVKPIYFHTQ

[4] = biological target: T2, wild-type Androgen Receptor (AR-wt); experiment: LNCaP-AR-wt AG reporter assay (agonist mode); settings: for EC50: agonist mode, pEC50 = −Log10(EC50 in Molar), read-out: LNCaP-AR-wt AG pEC50 (converted); for Emax: maximum % stimulation (agonist response) over the tested concentration range, read-out: LNCaP-AR-wt AG MAX % Stim
[5] = maximum % stimulation (agonist response) over the tested concentration range
[6] = antagonist mode, pIC50 = −Log10(IC50 in Molar)

T1 sequence (P10275 whole entry F877L): as the sequence (P10275 whole entry) above, with F877L counted along it

Row | Compound | EC50 [1] | Emax [1, 5] | IC50 [2, 6] | Emax [2] | IC50 [3, 6] | Emax [3] | EC50 [4] | Emax [4] | LNCaP-AR-F876L AG MAX % Stim [1, 5] | LNCaP-AR-F876L ANT pIC50 [2, 6] | LNCaP-AR-wt ANT pIC50 [3, 6]
1 | COCc1ccc(-c2ccc(N3C(=S)N(c4cnc(C#N)c(C)c4)C(=O)C34CCC4)cc2)o1 [Cpd 6, 5-(8-{4-[5-(methoxymethyl)(2-furyl)]phenyl}-5-oxo-7-thioxo-6,8-diazaspiro[3.4]oct-6-yl)-3-methylpyridine-2-carbonitrile] | > 15100 nM | 0.9% | 191 nM | 98.1% | 295 nM | 99.7% | > 15100 nM | 0.3% | – | – | –
2 | Cc1cc(N2C(=O)C3(CCC3)N(c3ccc(-c4cnn(C(N)=O)c4)cc3)C2=S)cnc1C#N [Cpd 7, 4-{4-[7-(6-cyano-5-methyl(3-pyridyl))-8-oxo-6-thioxo-5,7-diazaspiro[3.4]oct-5-yl]phenyl}pyrazolecarboxamide] | > 15100 nM | 2.8% | 135 nM | 98.2% | 288 nM | 99.1% | > 15100 nM | 0.3% | – | – | –
3 | CNC(=O)Cc1ccc(N2C(=S)N(c3cnc(C#N)c(C)c3)C(=O)C23CCC3)cc1 [Cpd 8, 2-{4-[7-(6-cyano-5-methyl(3-pyridyl))-8-oxo-6-thioxo-5,7-diazaspiro[3.4]oct-5-yl]phenyl}-N-methylacetamide] | > 15100 nM | -0.1% | 1150 nM | 96% | 1170 nM | 86.6% | > 15100 nM | 0.4% | – | – | –
4 | Cc1cc(N2C(=O)C3(CCC3)N(c3ccc(N4CCNC4=O)cc3)C2=S)cnc1C#N [Cpd 9, 3-Methyl-5-{5-oxo-8-[4-(2-oxoimidazolidinyl)phenyl]-7-thioxo-6,8-diazaspiro[3.4]oct-6-yl}pyridine-2-carbonitrile] | > 15100 nM | 0.5% | 575 nM | 98.4% | 1200 nM | 94.2% | > 15100 nM | 0.1% | – | – | –
5 | CCNC(=O)n1cc(-c2ccc(N3C(=S)N(c4cnc(C#N)c(C)c4)C(=O)C34CCC4)cc2)cn1 [Cpd 10, (4-{4-[7-(6-cyano-5-methyl(3-pyridyl))-8-oxo-6-thioxo-5,7-diazaspiro[3.4]oct-5-yl]phenyl}pyrazolyl)-N-ethylcarboxamide] | > 15100 nM | 0.9% | 275 nM | 100% | 339 nM | 102% | > 15100 nM | 0.5% | – | – | –
6 | N#Cc1ncc(N2C(=O)C3(CCC3)N(c3ccc(OC4CCSCC4)cc3)C2=S)cc1C(F)(F)F [Cpd 12, 5-[5-oxo-8-(4-thian-4-yloxyphenyl)-7-thioxo-6,8-diazaspiro[3.4]oct-6-yl]-3-(trifluoromethyl)pyridine-2-carbonitrile] | > 15100 nM | 0.7% | 117 nM | 98.5% | 661 nM | 101% | > 15100 nM | 0.5% | – | – | –
7 | N#Cc1ncc(N2C(=O)C3(CCC3)N(c3ccc(OC4CCS(=O)(=O)CC4)cc3)C2=S)cc1C(F)(F)F [Cpd 13, 5-{8-[4-(1,1-dioxothian-4-yloxy)phenyl]-5-oxo-7-thioxo-6,8-diazaspiro[3.4]oct-6-yl}-3-(trifluoromethyl)pyridine-2-carbonitrile] | > 15100 nM | 1% | 363 nM | 98.1% | 537 nM | 101% | > 15100 nM | 0.5% | – | – | –
8 | N#Cc1ncc(N2C(=O)C3(CCC3)N(c3ccc(OC4CCN(CCCF)CC4)cc3)C2=S)cc1C(F)(F)F [Cpd 14, 5-(5-(4-((1-(3-fluoropropyl)piperidin-4-yl)oxy)phenyl)-8-oxo-6-thioxo-5,7-diazaspiro[3.4]octan-7-yl)-3-(trifluoromethyl)picolinonitrile] | > 15100 nM | 0.2% | 234 nM | 98.4% | 562 nM | 97.1% | > 15100 nM | 0.4% | – | – | –
9 | COc1ccc(N2C(=S)N(c3cnc(C#N)c(C(F)(F)F)c3)C(=O)C23CCC3)cn1 [Cpd 15, 5-[8-(6-methoxy-3-pyridyl)-5-oxo-7-thioxo-6,8-diazaspiro[3.4]octan-6-yl]-3-(trifluoromethyl)pyridine-2-carbonitrile] | > 15100 nM | 1.1% | 191 nM | 100% | 240 nM | 101% | > 15100 nM | -0.1% | – | – | –
10 | CN1CC[C@@H](Oc2ccc(N3C(=S)N(c4cnc(C#N)c(C(F)(F)F)c4)C(=O)C34CCC4)cc2)C1 [Cpd 16, 5-[8-[4-[(3R)-1-methylpyrrolidin-3-yl]oxyphenyl]-5-oxo-7-thioxo-6,8-diazaspiro[3.4]octan-6-yl]-3-(trifluoromethyl)pyridine-2-carbonitrile] | > 15100 nM | 0.8% | 363 nM | 97.5% | 1120 nM | 98.8% | > 15100 nM | 0.5% | – | – | –
11 | N#Cc1ncc(N2C(=O)C3(CCC3)N(c3ccc(OC4CCCNCC4)cc3)C2=S)cc1C(F)(F)F (stereo not drawn) [Cpd 17, 5-[8-(4-azaperhydroepin-4-yloxyphenyl)-5-oxo-7-thioxo-6,8-diazaspiro[3.4]oct-6-yl]-3-(trifluoromethyl)pyridine-2-carbonitrile] | > 15100 nM | – | 457 nM | 100% | 1510 nM | 98.5% | > 15100 nM | 0.3% | 0.1% | – | –
12 | N#Cc1ncc(N2C(=O)C3(CCC3)N(c3ccc(O)nc3)C2=S)cc1C(F)(F)F [Cpd 18, 5-[8-(6-hydroxy-3-pyridyl)-5-oxo-7-thioxo-6,8-diazaspiro[3.4]octan-6-yl]-3-(trifluoromethyl)pyridine-2-carbonitrile] | > 15100 nM | 0% | – | 99% | – | 93.5% | > 15100 nM | 0% | – | 6.00 | 5.65
13 | CN1CCCC(Oc2ccc(N3C(=S)N(c4cnc(C#N)c(C(F)(F)F)c4)C(=O)C34CCC4)cc2)CC1 (stereo not drawn) [Cpd 19, 5-{8-[4-(1-methylazaperhydroepin-4-yloxy)phenyl]-5-oxo-7-thioxo-6,8-diazaspiro[3.4]oct-6-yl}-3-(trifluoromethyl)pyridine-2-carbonitrile] | > 15100 nM | 1.6% | 200 nM | 101% | 661 nM | 101% | > 15100 nM | 0.3% | – | – | –
14 | CN1CCC[C@H](Oc2ccc(N3C(=S)N(c4cnc(C#N)c(C(F)(F)F)c4)C(=O)C34CCC4)cc2)C1 [Cpd 20, 5-{8-[4-((3S)-1-methyl(3-piperidyloxy))phenyl]-5-oxo-7-thioxo-6,8-diazaspiro[3.4]oct-6-yl}-3-(trifluoromethyl)pyridine-2-carbonitrile] | > 15100 nM | -0.5% | 513 nM | 97.7% | 1820 nM | 93.2% | > 15100 nM | 0.2% | – | – | –
15 | Cc1cc(N2C(=O)C3(CCC3)N(c3ccc(OC4CCSCC4)nc3)C2=S)cnc1C#N [Cpd 21, 3-methyl-5-[5-oxo-8-(6-thian-4-yloxy(3-pyridyl))-7-thioxo-6,8-diazaspiro[3.4]oct-6-yl]pyridine-2-carbonitrile] | > 15100 nM | 0.3% | 309 nM | 69.9% | 501 nM | 80.6% | > 15100 nM | -0.1% | – | – | –
16 | COc1cc(N2C(=O)C3(CCC3)N(c3ccc(OC4CCN(C)CC4)nc3)C2=S)cnc1C#N [Cpd 25] | > 15100 nM | 0.2% | – | 100% | – | 101% | > 15100 nM | 0% | – | – | –
17 | CN1CCC(Oc2ccc(N3C(=S)N(c4cnc(C#N)c(Cl)c4)C(=O)C34CCC4)cn2)CC1 [Cpd 26] | > 15100 nM | 0.5% | 69.2 nM | 100% | 55 nM | 101% | > 15100 nM | 0.4% | – | – | –
18 | Cc1cc(N2C(=O)C3(CCC3)N(c3ccc(OCCCN(C)C)nc3)C2=S)cnc1C#N [Cpd 27, 5-[8-[6-[3-(dimethylamino)propoxy]-3-pyridyl]-5-oxo-7-thioxo-6,8-diazaspiro[3.4]octan-6-yl]-3-methyl-pyridine-2-carbonitrile] | > 15100 nM | -0.1% | 107 nM | 101% | 219 nM | 101% | > 15100 nM | 0% | – | – | –
19 | CC(C)(C)OC(=O)N1CCN(C(=O)c2ccc(N3C(=S)N(c4cnc(C#N)c(C(F)(F)F)c4)C(=O)C34CCC4)cc2)CC1 [Cpd 32, tert-butyl 4-[4-[6-[6-cyano-5-(trifluoromethyl)-3-pyridyl]-5-oxo-7-thioxo-6,8-diazaspiro[3.4]octan-8-yl]benzoyl]piperazine-1-carboxylate] | > 15100 nM | -0.1% | 1120 nM | 74.1% | 2140 nM | 64.9% | > 15100 nM | 0.4% | – | – | –
